From patent US12234232B2, “Aromatic heterocyclic compound with kinase inhibitory activity” (SHANGHAI ENNOVABIO PHARMACEUTICALS CO., LTD., priority 2018, dated 2025)

Legend:
JAK3 protein = molecular target: T1, JAK3 protein (Homo sapiens, UniProt P52333); experiment: In vitro JAK3 kinase activity assay (HTRF kinEASE TK); format: biochemical; settings: 0.75 μM ATP, 25 minutes, room temperature; read-out: IC50 JAK3 (enzyme activity assay)
T1 construct: purchased Carna Biosciences
T1 sequence (P52333 1-1124): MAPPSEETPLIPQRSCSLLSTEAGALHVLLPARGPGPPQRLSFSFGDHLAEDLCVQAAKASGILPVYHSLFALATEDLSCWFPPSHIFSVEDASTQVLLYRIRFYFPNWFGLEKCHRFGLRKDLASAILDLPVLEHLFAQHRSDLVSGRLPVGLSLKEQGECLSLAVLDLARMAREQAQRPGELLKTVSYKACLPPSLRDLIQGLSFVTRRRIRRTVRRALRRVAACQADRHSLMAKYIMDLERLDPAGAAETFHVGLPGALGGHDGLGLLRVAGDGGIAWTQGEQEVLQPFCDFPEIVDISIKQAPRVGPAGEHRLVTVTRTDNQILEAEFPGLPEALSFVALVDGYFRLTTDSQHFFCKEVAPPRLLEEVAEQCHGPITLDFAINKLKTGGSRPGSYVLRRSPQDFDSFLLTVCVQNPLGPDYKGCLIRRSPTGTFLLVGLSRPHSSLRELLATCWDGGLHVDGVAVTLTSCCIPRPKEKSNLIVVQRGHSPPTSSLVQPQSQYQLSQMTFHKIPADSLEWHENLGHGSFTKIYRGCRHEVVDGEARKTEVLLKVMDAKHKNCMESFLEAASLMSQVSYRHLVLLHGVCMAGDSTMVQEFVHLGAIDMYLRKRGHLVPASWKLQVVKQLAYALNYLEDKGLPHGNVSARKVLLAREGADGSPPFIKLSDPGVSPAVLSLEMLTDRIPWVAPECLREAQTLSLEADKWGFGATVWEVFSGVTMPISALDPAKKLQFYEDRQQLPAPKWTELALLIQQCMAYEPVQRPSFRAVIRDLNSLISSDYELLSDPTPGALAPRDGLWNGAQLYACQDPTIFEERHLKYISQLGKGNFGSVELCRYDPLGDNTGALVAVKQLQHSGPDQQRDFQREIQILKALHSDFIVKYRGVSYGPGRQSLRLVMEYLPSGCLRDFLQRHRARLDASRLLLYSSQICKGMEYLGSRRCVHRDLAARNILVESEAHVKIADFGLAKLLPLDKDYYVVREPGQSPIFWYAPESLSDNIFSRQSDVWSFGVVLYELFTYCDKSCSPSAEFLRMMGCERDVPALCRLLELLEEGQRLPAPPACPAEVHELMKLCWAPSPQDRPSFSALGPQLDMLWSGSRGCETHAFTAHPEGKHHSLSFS
Method: (§1) Recombinant human JAK1 protein was purchased from Thermo Fisher. JAK2 and JAK3 proteins were purchased from Carna Biosciences. HTRF kinEASE TK kit was purchased from Cisbio Bioassays. BioTek microplate reader Synergy Neo 2 was used to read the plate.
(§2) The test compounds were of 4-fold serial dilution, and the final concentration ranged from 10 μM to 0.04 nM in duplicates for each concentration. The concentration of DMSO in the reaction system was 1%.
(§3) The reaction included 0.004 ng/gi JAK 3 protein kinase, 1 μM TK Substrate-biotin peptide substrate, 0.75 μM ATP, 1× enzymatic buffer, 5 mM MgCl2, and 1 mM DTT. The detection plate was White Proxiplate 384-Plus plate (PerkinElmer), and the mixture (10 μl) was reacted at room temperature for 25 minutes.
(§4) Reaction detection: 10 μl of detection reagent was added to the reaction plate containing final concentration of 0.125 μM of SA-XL665 and 5 μl 1×TK-Antibody. The mixture was incubated overnight at room temperature. The plate was read using Synergy Neo 2.
(§5) Data analysis: 665/620 Ratio was converted into inhibition rate (%) through the following formula: inhibition rate (%)=(Ratiomax−Ratiotest)/(Ratiomax−Ratiomin)×100%. Ratiomax is a positive control without detection compound, Ratiomin is a negative control without detection compound and kinase, Ratiotest is the detection value of each concentration of different compounds. 4 parameter curve fitting was performed to measure the IC50 (nM) values. The details are shown in, Table 1.

JAK2 [1] = molecular target: T2, JAK2 (Homo sapiens, UniProt O60674); experiment: In vitro JAK2 kinase activity assay (HTRF kinEASE TK); format: biochemical; design: purchased Carna Biosciences; settings: 2.7 μM ATP, 25 minutes, room temperature; read-out: IC50 JAK2 (enzyme activity assay)
Method: as §1, §2
as §3, with “included 0.001 ng/μl” for “included 0.004 ng/gi”, “JAK 2” for “JAK 3”, “substrate, 2.7” for “substrate, 0.75”
as §4, §5

JAK1 [2] = molecular target: T3, JAK1 (Homo sapiens, UniProt P23458); experiment: Cellular JAK1 activity assay: IL-6-stimulated STAT3 phosphorylation in TF-1 cells; format: cell-based; design: endogenous in cells; host or cells: TF-1 cells (ATCC); settings: IL-6 (30 ng/mL), pSTAT3, read-out: IC50 Cell JAK1
Method: (§6) In TF-1 cells, IL-6 stimulation leads to phosphorylation of STAT3 through JAK1, while EPO stimulants phosphorylation of STAT5 via JAK2.
(§7) TF-1 cells were obtained from American Type Culture Collection (ATCC). TF-1 cells were starved overnight (cell density was 100,000 cells/well at plating) in OptiMEM medium without phenol red containing 0.5% fetal bovine serum (FBS), 0.1 mM non-essential amino acids (NEAA), 1 mM sodium pyruvate at 37° C. The compound was serially diluted in DMSO, added to TF-1 cells and incubated at 37° C. for 20 minutes. The final concentration of DMSO was 0.2%. Then, human recombinant cytokine IL-6 (30 ng/mL) or EPO (10 U/mL) was added to the wells containing TF-1 cells. After the cell plate was incubated for 30 minutes, cells were lysed, and the phosphorylation of STAT3 (IL-6) or STAT5 (EPO) in the cell lysate (pSTAT3/total STAT3 Elisa Kit: CST #7300C/CST #7305C; pSTAT5 and total STAT5 Elisa Kit: Abcam #ab205715) was measured. The IC50 value was determined as the concentration of the compound required to inhibit STAT phosphorylation by 50% relative to the measured DMSO control.

JAK2 [3] = molecular target: T2, JAK2; experiment: Cellular JAK2 activity assay: EPO-stimulated STAT5 phosphorylation in TF-1 cells; format: cell-based; design: endogenous in cells; host or cells: TF-1 cells (ATCC); settings: EPO (10 U/mL), pSTAT5, read-out: IC50 Cell JAK2
Method: as §6, §7

Mouse pharmacokinetics = format: in vivo; settings: CD-1 mice, 5 mg/kg, P.O.
Method: Test compound was intravenously (IV) or orally (PO) administrated to CD-1 mice. Blood samples were collected at different time points as indicated below. The concentration of the compounds in the mouse plasma was determined by LC-MS/MS and related parameters were calculated. The details are as follows: the required amount of the test product was taken to prepare a solution of the required concentration for intravenous injection or oral administration. The age of the animals was about 6-8 weeks at the beginning of the dosing experiment. Blood sampling time points are 0.083 h, 0.25 h, 0.5 h, 1 h, 2 h, 4 h, 8 h and 24 h after compound administration. The Phoenix WinNonlin 7.0 software was used to calculate the pharmacokinetic parameters through the blood drug concentration data at different time points.

JAK1 [4] = molecular target: T3, JAK1; experiment: In vitro JAK1 kinase activity assay (HTRF kinEASE TK); format: biochemical; design: purchased Thermo Fisher; settings: 1.1 μM ATP, 60 minutes, room temperature; read-out: IC50 JAK1 (enzyme activity assay)
Method: as §1, §2
The reaction included 0.5 ng/μl JAK 1 protein kinase, 1 μM TK Substrate-biotin peptide substrate, 1.1 μM ATP, 1× enzymatic buffer, 5 mM MgCl2, 1 mM MnCl2, 1 mM DTT, and 2.5 nM SEB. The detection plate was White Proxiplate 384-Plus plate (PerkinElmer), and the mixture (10 μl) was reacted at room temperature for 60 minutes.
as §4, §5

T3 sequence (P23458 whole entry): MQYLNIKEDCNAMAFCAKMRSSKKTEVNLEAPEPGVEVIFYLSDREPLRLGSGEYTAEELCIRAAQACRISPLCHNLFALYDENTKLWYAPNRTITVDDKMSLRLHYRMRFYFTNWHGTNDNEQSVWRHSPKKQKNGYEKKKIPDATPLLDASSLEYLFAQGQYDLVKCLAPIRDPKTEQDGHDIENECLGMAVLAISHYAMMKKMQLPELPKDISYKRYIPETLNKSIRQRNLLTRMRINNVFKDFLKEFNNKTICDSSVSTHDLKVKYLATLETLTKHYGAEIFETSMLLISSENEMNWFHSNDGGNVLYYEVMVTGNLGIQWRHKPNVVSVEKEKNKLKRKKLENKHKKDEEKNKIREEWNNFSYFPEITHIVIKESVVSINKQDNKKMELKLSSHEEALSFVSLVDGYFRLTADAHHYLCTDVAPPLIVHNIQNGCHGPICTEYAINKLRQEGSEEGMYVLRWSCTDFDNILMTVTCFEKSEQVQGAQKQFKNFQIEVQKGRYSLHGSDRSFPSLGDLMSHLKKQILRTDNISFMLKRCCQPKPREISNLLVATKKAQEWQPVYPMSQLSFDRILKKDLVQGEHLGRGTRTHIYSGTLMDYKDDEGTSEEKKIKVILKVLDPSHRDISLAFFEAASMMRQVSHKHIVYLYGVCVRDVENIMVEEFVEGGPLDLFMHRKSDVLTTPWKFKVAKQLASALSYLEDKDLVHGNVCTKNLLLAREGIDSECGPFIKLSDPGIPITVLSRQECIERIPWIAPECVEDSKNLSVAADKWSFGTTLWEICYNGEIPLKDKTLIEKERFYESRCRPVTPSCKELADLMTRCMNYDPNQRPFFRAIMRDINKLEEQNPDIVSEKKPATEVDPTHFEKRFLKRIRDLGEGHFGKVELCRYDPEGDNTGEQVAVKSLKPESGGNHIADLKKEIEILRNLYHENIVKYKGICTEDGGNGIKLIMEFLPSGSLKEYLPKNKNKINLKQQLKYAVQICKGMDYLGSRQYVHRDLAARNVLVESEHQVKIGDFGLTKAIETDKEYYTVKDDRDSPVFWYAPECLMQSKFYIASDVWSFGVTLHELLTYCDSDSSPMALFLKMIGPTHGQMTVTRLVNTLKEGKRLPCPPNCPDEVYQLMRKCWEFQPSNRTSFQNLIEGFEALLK
T2 sequence (O60674 whole entry): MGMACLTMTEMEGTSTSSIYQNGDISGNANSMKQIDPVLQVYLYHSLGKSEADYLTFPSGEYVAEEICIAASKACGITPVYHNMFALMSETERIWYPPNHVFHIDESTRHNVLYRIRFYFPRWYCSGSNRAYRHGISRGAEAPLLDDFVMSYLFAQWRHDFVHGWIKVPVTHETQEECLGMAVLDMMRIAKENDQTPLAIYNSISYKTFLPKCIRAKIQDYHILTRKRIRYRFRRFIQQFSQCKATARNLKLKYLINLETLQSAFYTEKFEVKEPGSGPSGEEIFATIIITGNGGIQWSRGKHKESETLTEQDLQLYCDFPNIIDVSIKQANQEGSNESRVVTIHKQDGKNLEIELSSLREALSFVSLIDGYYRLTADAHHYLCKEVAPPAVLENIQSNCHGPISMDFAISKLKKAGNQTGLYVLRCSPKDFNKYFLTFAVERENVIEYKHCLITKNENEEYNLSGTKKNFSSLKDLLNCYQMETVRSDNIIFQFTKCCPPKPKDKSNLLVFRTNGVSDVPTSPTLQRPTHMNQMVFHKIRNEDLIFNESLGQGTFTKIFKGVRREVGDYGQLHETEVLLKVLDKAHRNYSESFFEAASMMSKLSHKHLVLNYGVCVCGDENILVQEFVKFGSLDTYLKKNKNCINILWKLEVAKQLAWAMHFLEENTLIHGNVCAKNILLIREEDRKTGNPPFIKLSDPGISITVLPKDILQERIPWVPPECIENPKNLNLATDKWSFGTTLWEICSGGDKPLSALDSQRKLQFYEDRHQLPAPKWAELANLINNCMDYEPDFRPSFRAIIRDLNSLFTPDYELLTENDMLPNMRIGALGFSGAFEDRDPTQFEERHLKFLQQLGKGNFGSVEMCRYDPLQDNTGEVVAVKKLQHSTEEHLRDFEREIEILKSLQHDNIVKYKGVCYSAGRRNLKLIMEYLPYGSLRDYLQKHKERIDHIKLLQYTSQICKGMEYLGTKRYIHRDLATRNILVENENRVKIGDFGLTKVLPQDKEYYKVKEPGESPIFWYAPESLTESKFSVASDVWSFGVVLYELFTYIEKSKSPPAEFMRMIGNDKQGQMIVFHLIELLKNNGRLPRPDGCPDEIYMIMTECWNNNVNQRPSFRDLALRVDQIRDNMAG

IC50 (JAK3 protein): 0.5 to 10 µM
IC50 (JAK2 [1]): 0.1 to 10 µM
IC50 (JAK1 [2]): < 0.1 µM
IC50 (JAK2 [3]): > 20 µM
F (Mouse pharmacokinetics): 97.1%
Cmax (Mouse pharmacokinetics; mouse, po, plasma): 264 ng/mL
half-life (Mouse pharmacokinetics; mouse, po, plasma): 2.61 h
AUC(0-t) (Mouse pharmacokinetics; mouse, po, plasma, read-out: AUC0-24 hr): 1680 ng·h/mL
IC50 (JAK1 [4]): < 0.005 µM
SMILES: CCC(C(=O)Nc1nccc2c(-c3nc(Nc4cccc(S(C)(=O)=O)c4F)ncc3C)c[nH]c12)N1CCN(C)CC1 (stereo in doubt) [Example 21, (R)—N-(3-(2-((2-Fluoro-3-(methylsulfonyl)phenyl)amino)-5-methylpyrimidin-4-yl)-1H-pyrrolo[2,3-c]pyridin-7-yl)-2-(4-methylpiperazin-1-yl)butanamide]
